Where a SMILES comes first, the peptide text is derived from it. [ ]: non-standard residue; d: D form.
What was measured:
Format in all cases: toxicity, cell-based
[1] = tested on: U2OS; test: Incucyte cell viability with U2OS; conditions: human, 10 µM, compound concentration 10 uM
[2] = tested on: Fibroblast; test: Incucyte cell viability with human fibroblast; conditions: 10 µM, compound concentration 10 uM
[3] = tested on: HEK-293T; test: Incucyte cell viability with HEK293T; conditions: human, 10 µM, compound concentration 10 uM
[4] = 0 h, replicate number 1, timepoint 0 hours
[5] = 0 h, replicate number 2, timepoint 0 hours
[6] = 6 h, replicate number 1, timepoint 6 hours
[7] = 6 h, replicate number 2, timepoint 6 hours
[8] = 12 h, replicate number 1, timepoint 12 hours
[9] = 12 h, replicate number 2, timepoint 12 hours
[10] = 18 h, replicate number 1, timepoint 18 hours
[11] = 18 h, replicate number 2, timepoint 18 hours
[12] = 24 h, replicate number 1, timepoint 24 hours
[13] = 24 h, replicate number 2, timepoint 24 hours
Note: unitless GR value; below 1 slowed growth and below 0 cell loss.

SMILES	Growth Rate [1, 4]	Growth Rate [1, 5]	Growth Rate [1, 6]	Growth Rate [1, 7]	Growth Rate [1, 8]	Growth Rate [1, 10]	Growth Rate [1, 11]	Growth Rate [1, 12]	Growth Rate [1, 13]	Growth Rate [2, 4]	Growth Rate [2, 5]	Growth Rate [2, 6]	Growth Rate [2, 7]	Growth Rate [2, 8]	Growth Rate [2, 10]	Growth Rate [2, 12]	Growth Rate [3, 5]	Growth Rate [3, 8]	Growth Rate [3, 10]	Growth Rate [3, 12]	other results
O=C1[C@H](Cc2ccc(O)cc2)N2C(=O)CCN(C(=O)NCc3ccccc3)[C@H]2CN1Cc1cccc2ccccc12	-0.65	0.18	0.4	0.87	0.14	0.11	0.51	0.3	0.57	0.78	0.82	-0.77	0.03	-0.6	-0.71	-0.54	0.37	-0.35	-0.29	-0.24	Growth Rate [1, 9]: 0.6; Growth Rate [2, 9]: -0.16; Growth Rate [2, 11]: -0.07; Growth Rate [2, 13]: -0.02; Growth Rate [3, 4]: 0.98; Growth Rate [3, 6]: -0.42; Growth Rate [3, 7]: -0.2; Growth Rate [3, 9]: -0.29; Growth Rate [3, 11]: -0.22; Growth Rate [3, 13]: -0.21
Nc1ncnc2c1ncn2[C@@H]1O[C@H](CO)[C@@H](O)[C@H]1O [ADENOSINE]	0.54	–	0.47	–	0.84	0.77	–	–	–	0.25	0.19	-0.04	–	0.59	0.7	0.58	-0.36	–	–	0.79	Growth Rate [3, 4]: -0.6; Growth Rate [3, 11]: 0.98
Cl.Clc1ccc2nsnc2c1NC1=NCCN1 [TIZANIDINE HYDROCHLORIDE]	0.36	-1	0.31	–	–	–	–	–	–	–	0.25	-0.29	–	0.72	0.25	0.25	–	1	–	–	Growth Rate [3, 7]: 0.88; Growth Rate [3, 9]: 0.61
CC(C)C[C@@H]1NC(=O)[C@@H](C(C)C)NC(=O)[C@@H]2CCCN2C(=O)[C@@H](CC(=O)O)NC(=O)[C@@H](Cc2c[nH]c3ccccc23)NC1=O [BQ-123] (cyclo(L[dW][dD]P[dV]))	–	-1	0.51	0.68	0.65	0.49	–	0.93	–	0.41	0.34	0.81	0.18	0.87	0.98	–	0.79	0.92	0.91	0.97	Growth Rate [2, 9]: 0.89; Growth Rate [2, 11]: 0.94; Growth Rate [3, 6]: 0.89
CO[C@H]1CNC[C@@H](OCC2CCC(F)(F)CC2)[C@@H]1Nc1ncc(-c2cncc(C)c2)c2cc(C)c(=O)[nH]c12	-0.36	–	0.62	–	0.39	0.7	0.97	0.53	1	0.72	0.95	0.63	0.24	0.16	0.28	0.1	0.51	0.87	0.84	0.85	Growth Rate [1, 9]: 0.98; Growth Rate [2, 9]: 0.53; Growth Rate [2, 11]: 0.64; Growth Rate [2, 13]: 0.73
COc1ccncc1C(=O)NC(=O)Nc1ccc(-c2ccccc2)c(C(F)(F)F)c1	–	–	–	0.74	–	–	0.94	–	1	0.48	0.72	-0.12	0.15	0.58	0.7	0.92	–	0.48	0.58	0.69	Growth Rate [3, 6]: 0.25; Growth Rate [3, 7]: 0.96; Growth Rate [3, 9]: 0.74; Growth Rate [3, 11]: 0.86
C[C@H](CCC(=O)O)[C@H]1CC[C@H]2[C@@H]3CC[C@@H]4C[C@H](O)CC[C@]4(C)[C@H]3CC[C@]12C [LITHOCHOLIC ACID]	0.9	0.03	–	0.51	0.79	0.78	0.79	0.96	0.75	–	0.62	0.65	–	0.42	0.36	0.22	0.75	0.56	0.75	0.76	Growth Rate [1, 9]: 0.77; Growth Rate [2, 9]: 0.98; Growth Rate [2, 11]: 0.98; Growth Rate [2, 13]: 0.78; Growth Rate [3, 4]: 0.8; Growth Rate [3, 6]: 0.39; Growth Rate [3, 9]: 0.96; Growth Rate [3, 13]: 0.86

Reference: ChEMBL document CHEMBL5058564, “EUbOPEN Chemogenomics Library 2 (Incucyte)” (2022)
